According to paper PMC7689089, “Regorafenib combined with PD1 blockade increases CD8 T-cell infiltration by inducing CXCL10 expression in hepatocellular carcinoma” (Journal for Immunotherapy of Cancer, 2020):
Read-outs that look alike come from different tables or passages of the source.

Assays:
advanced HCC [1] = system: advanced HCC; parameters: method as in ref 14 15; settings: previously treated patients with advanced HCC; phase I/II trial data; ref 14 15; cited from earlier work
RIL-175 cells = assay: CXCL10 secretion by RIL-175 cells in vitro (ELISA); assay type: cell-based, mouse; settings: 2μM for 36hr; ELISA; n=6
Excerpt: To determine if CXCL10 was produced by murine HCC cells in response to regorafenib treatment, we next cultured RIL-175 cells with various concentration of regorafenib in vitro and measured the CXCL10 levels by ELISA. […]
treated by regorafenib as standard of care (HCC) (using the DFCI Protocol No.: 13-416 “Collection of Specimens and Clinical Data for Patients with Known or Suspected Solid Tumors”, PI, Dr. Juric, MGH) or in a phase I clinical trial of regorafenib monotherapy in acute myeloid leukemia (AML) patients (ClinicalTrials.gov Identifier: NCT03042689, PI, Hobbs, MGH). Both protocols have been IRB approved, and written consent was obtained from all patients.
Protein analyses. Western blotting was performed using antibodies against Stat1 (D1K9Y), phosphorylated (p)-Stat1 (Tyr701) (D4A7), Stat3 (79D7), p-Stat3 (Ser727) (Cell Signaling Technology, Danvers, MA), and IFN-γ (EPR1108) (Abcam, Cambridge, MA). Multiplexed protein array analysis was performed for protein extracts from whole tumors, using V-PLEX Proinflammatory Panel 1 Mouse Kit, V-PLEX Cytokine Panel 1 Mouse Kit and V-PLEX […] (Meso-Scale Discovery, Rockville, MD). For cell supernatant collection, 1x10^6 of RIL-175 cells were cultured in DMEM medium with 2% FBS and regorafenib was given in a various dose.
Supernatant was collected after 36hr of incubation and multiplexed protein array analysis was done using the same kit above.
Flow cytometry analysis. Tumor tissues were extracted from the mice, weighted and minced with a scalpel. Hank’s buffered salt solution (HBSS) with 1.5mg/ml of collagenase and hyaluronidase was added to the minced tissues and incubated for 30 min at 37°C. After incubation, digested tissues were passed through the 70μm cell strainer and washed with PBS with 2% BSA. After preparation, cells were suspended in 2ml of PBS with 2% BSA, then counted using a cell counting plate (Kova slide) (if the final concentration of cell exceeded 10^7 cells/ml, a dilution factor was applied). One hundred microliters of this suspension were used per subsequent flow cytometry staining. […]

advanced HCC [2] = system: advanced HCC; parameters: method as in ref 4 5; settings: patients with advanced HCC; ref 4 5; cited from earlier work
[3] = mouse, in vivo
Experimental: From the orthotopic HCC and liver damage mouse models described above, blood samples were collected at 1, 4, 7 and 24 hours after once-daily oral administration of 5, 10 and 20 mg/kg regorafenib, respectively, for 5 days. Anti-PD1 antibody was given on days 1 and 4 with dose of 10 mg/kg by intraperitoneal injection. Blood samples were drawn from four to five animals per sampling time point. Regorafenib and its active metabolites M-2, M-4 and M-5 were analyzed in plasma samples using a validated bioanalytical liquid chromatography-tandem mass spectrometry.[25 33] Pharmacokinetic (PK) parameters were derived from the area under the plasma concentration versus time curve (AUC) using a non-compartmental analysis.
In addition, we evaluated PK parameters in HCC-bearing mice after regorafenib administration alone at doses of 5, 10 and 20 mg/kg or in combination with anti-PD1 therapy at the 10 mg/kg regorafenib dose for 5 days to achieve a steady state.

pembrolizumab: anti-PD1 antibody
Responses (advanced HCC [1]): 14%–31%

NS(=O)(=O)c1cccc2c1C(=O)c1cccc(O)c1C2=O [LLL12]
CXCL10 expression in RIL-175 cells (RIL-175 cells): significantly increased

nivolumab: anti-PD1 antibody
Responses (advanced HCC [1]): 14%–31%

CNC(=O)c1cc(Oc2ccc(NC(=O)Nc3ccc(Cl)c(C(F)(F)F)c3)cc2)ccn1 [Sorafenib]
OS benefit over placebo (advanced HCC [2]): approximately 3 months

NC(=O)c1cc(Oc2ccc(NC(=O)Nc3ccc(Cl)c(C(F)(F)F)c3)c(F)c2)ccn1 [M-4]
Plasma Tmax [3]: 7 h | Tumor Tmax [3]: 7 h | Plasma AUC ([3]; po, 5 mg/kg): 363 ng·h/mL | Plasma AUCnorm ([3]; po, 5 mg/kg): 0.0749 kg·h/L | Plasma Cmax ([3]; po, 5 mg/kg): 21.7 ng/mL | Plasma Tmax ([3]; po, 5 mg/kg): 7 h | Tumor AUC ([3]; po, 5 mg/kg): 1040 ng·h/mL | Tumor AUCnorm ([3]; po, 5 mg/kg): 0.209 kg·h/L | Tumor Cmax ([3]; po, 5 mg/kg): 52.8 µg/kg | Tumor Tmax ([3]; po, 5 mg/kg): 4 h | Plasma AUC ([3]; po, 10 mg/kg): 663 ng·h/mL | Plasma AUCnorm ([3]; po, 10 mg/kg): 0.0684 kg·h/L | Plasma Cmax ([3]; po, 10 mg/kg): 40.5 ng/mL | Plasma Tmax ([3]; po, 10 mg/kg): 7 h | Tumor AUC ([3]; po, 10 mg/kg): 2100 ng·h/mL | Tumor AUCnorm ([3]; po, 10 mg/kg): 0.210 kg·h/L | Tumor Cmax ([3]; po, 10 mg/kg): 117 µg/kg | Tumor Tmax ([3]; po, 10 mg/kg): 7 h | Plasma AUC ([3]; po, 20 mg/kg): 1480 ng·h/mL | Plasma AUCnorm ([3]; po, 20 mg/kg): 0.0763 kg·h/L | Plasma Cmax ([3]; po, 20 mg/kg): 124 ng/mL | Plasma Tmax ([3]; po, 20 mg/kg): 7 h | Tumor AUC ([3]; po, 20 mg/kg): 3780 ng·h/mL | Tumor AUCnorm ([3]; po, 20 mg/kg): 0.189 kg·h/L | Tumor Cmax ([3]; po, 20 mg/kg): 214 µg/kg | Tumor Tmax ([3]; po, 20 mg/kg): 7 h
